Calls of active or inactive are those of the source. The calls are words filed in the database; no cut-off is given here.
Legend:
[1] = molecular target: T1, Tyrosine-protein phosphatase non-receptor type 2 (Homo sapiens, UniProt P17706); test: Inhibition of TC-PTP
T1 sequence (P17706 whole entry): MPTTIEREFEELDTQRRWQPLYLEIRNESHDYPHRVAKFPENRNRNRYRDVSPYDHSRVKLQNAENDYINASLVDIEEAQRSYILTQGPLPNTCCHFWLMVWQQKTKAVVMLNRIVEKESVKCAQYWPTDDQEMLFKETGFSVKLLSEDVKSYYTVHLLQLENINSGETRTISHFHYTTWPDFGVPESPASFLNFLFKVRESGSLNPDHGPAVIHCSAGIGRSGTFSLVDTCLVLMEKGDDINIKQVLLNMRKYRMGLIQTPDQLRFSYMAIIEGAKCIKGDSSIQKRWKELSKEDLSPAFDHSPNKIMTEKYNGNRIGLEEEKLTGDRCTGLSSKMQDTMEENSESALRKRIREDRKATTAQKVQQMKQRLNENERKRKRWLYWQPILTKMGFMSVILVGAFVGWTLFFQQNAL

[2] = molecular target: Receptor-type tyrosine-protein phosphatase F (Homo sapiens, UniProt P10586); test: Inhibition of LAR
Receptor-type tyrosine-protein phosphatase F, sequence (P10586 whole entry): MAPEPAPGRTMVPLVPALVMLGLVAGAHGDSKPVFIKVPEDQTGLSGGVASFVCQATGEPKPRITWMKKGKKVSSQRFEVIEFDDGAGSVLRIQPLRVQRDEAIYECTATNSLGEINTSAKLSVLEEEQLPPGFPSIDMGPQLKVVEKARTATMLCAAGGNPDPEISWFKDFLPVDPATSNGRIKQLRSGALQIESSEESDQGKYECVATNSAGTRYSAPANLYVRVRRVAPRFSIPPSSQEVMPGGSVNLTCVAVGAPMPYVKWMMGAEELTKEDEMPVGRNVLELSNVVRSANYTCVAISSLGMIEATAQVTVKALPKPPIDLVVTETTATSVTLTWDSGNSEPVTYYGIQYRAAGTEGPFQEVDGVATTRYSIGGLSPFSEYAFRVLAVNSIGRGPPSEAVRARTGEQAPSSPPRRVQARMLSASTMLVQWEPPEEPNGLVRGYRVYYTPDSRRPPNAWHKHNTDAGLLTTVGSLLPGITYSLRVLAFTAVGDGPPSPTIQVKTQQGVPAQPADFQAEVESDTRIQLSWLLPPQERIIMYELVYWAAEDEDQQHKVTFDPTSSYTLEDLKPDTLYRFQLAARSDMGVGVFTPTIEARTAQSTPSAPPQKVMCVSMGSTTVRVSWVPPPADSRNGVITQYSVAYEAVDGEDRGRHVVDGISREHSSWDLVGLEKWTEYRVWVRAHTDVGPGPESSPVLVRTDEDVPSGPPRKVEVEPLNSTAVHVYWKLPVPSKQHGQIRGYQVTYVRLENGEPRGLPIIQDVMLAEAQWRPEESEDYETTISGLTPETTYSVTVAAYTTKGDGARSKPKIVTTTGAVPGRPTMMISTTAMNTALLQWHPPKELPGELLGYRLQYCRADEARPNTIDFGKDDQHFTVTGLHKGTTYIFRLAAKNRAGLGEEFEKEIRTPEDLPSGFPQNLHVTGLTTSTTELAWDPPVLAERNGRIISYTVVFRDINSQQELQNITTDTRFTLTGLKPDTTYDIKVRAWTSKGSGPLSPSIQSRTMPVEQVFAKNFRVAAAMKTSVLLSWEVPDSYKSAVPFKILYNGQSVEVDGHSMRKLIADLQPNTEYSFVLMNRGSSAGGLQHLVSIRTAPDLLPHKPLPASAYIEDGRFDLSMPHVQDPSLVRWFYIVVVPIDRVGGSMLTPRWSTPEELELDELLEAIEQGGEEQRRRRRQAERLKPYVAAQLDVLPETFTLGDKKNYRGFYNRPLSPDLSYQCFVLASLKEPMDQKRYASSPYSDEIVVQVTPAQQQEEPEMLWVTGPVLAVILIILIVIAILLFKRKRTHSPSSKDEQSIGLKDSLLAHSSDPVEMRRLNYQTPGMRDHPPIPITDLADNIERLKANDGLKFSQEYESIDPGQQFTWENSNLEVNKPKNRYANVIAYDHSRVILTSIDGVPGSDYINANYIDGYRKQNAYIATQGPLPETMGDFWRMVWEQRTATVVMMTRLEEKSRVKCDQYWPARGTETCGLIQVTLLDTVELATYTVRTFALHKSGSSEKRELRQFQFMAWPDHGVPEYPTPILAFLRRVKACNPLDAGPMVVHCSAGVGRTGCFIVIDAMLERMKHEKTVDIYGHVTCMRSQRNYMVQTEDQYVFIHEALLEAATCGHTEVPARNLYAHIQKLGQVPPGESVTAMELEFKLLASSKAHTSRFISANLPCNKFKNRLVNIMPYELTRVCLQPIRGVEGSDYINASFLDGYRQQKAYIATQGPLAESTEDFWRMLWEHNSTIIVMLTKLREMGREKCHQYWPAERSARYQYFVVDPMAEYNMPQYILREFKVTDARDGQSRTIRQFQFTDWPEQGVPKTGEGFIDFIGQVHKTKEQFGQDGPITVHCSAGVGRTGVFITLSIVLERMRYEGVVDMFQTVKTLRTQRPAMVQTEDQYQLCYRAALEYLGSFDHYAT

[3] = molecular target: T2, Tyrosine-protein phosphatase non-receptor type 22 (Homo sapiens) (UniProt Q9Y2R2); test: Inhibition of LYP at 100 uM
T2 sequence (whole entry): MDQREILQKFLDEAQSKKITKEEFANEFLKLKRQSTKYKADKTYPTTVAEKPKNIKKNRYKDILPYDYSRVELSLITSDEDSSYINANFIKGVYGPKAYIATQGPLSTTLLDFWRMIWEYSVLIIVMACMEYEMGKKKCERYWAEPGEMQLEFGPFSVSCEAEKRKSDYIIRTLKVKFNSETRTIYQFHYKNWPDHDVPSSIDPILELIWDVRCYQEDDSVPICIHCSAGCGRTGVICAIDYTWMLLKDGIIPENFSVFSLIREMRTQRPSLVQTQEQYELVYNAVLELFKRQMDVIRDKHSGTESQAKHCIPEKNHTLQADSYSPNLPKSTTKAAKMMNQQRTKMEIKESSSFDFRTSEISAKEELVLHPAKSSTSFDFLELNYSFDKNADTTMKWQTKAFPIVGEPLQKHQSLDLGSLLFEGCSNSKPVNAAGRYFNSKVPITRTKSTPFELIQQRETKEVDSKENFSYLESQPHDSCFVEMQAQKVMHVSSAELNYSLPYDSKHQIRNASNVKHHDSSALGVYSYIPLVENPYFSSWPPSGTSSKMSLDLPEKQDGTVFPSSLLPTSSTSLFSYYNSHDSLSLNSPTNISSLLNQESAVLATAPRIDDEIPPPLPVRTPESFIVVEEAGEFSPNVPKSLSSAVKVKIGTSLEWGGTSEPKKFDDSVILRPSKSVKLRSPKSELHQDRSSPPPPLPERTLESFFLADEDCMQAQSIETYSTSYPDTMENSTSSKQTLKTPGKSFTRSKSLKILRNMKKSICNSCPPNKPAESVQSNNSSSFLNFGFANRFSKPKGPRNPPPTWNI

[4] = Inhibition of Cdc14 at 100 uM
[5] = molecular target: T3, Tyrosine-protein phosphatase non-receptor type 1 (Homo sapiens, UniProt P18031); test: Inhibition of PTP1B
T3 sequence (P18031 whole entry): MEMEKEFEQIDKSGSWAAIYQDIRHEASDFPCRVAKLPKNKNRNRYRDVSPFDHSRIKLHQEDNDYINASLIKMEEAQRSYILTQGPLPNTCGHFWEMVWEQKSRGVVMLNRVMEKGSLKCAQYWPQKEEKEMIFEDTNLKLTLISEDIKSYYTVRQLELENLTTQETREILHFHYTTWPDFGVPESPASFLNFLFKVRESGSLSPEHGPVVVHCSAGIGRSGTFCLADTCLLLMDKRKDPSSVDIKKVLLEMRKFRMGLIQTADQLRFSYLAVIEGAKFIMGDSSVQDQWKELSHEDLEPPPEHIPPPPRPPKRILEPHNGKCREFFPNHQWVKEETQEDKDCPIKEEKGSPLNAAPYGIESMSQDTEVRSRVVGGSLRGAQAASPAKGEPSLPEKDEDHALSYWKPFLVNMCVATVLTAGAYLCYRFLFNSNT

[6] = molecular target: T4, Low molecular weight phosphotyrosine protein phosphatase (Homo sapiens, UniProt P24666); test: Inhibition of LMW-PTP
T4 sequence (P24666 whole entry): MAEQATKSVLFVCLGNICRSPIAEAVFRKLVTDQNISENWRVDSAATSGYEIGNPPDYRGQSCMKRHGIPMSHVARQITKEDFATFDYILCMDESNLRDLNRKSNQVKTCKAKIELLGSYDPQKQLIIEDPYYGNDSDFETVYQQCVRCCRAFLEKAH

[7] = molecular target: Receptor-type tyrosine-protein phosphatase alpha (Homo sapiens) (UniProt P18433); test: Inhibition of PTPalpha at 100 uM
Receptor-type tyrosine-protein phosphatase alpha (Homo sapiens), sequence (P18433 20-802 limits assumed): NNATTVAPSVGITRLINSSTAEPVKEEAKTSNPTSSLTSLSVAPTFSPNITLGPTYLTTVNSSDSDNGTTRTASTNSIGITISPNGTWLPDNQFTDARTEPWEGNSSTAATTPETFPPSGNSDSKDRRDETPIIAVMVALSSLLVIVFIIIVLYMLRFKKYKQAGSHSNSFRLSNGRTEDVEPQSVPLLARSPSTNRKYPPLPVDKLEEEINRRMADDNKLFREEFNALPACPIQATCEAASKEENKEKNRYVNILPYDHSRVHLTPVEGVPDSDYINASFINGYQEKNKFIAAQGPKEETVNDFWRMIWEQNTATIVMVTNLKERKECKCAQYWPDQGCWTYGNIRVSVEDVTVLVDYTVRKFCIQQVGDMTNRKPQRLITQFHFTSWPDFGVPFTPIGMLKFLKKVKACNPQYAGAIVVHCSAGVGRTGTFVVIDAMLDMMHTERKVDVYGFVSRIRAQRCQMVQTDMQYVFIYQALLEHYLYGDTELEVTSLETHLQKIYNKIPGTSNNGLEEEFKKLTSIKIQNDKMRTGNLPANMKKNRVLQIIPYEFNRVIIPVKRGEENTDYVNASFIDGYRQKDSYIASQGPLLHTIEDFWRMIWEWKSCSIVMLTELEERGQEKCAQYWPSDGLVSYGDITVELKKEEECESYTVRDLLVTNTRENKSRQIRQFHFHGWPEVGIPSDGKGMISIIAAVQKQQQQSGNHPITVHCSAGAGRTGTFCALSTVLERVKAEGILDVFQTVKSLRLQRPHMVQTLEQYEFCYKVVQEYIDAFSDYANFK

[8] = molecular target: Tyrosine-protein phosphatase non-receptor type 6 (Homo sapiens, UniProt P29350); test: Inhibition of SHP1
Tyrosine-protein phosphatase non-receptor type 6, sequence (P29350 whole entry, the tested form may be a part): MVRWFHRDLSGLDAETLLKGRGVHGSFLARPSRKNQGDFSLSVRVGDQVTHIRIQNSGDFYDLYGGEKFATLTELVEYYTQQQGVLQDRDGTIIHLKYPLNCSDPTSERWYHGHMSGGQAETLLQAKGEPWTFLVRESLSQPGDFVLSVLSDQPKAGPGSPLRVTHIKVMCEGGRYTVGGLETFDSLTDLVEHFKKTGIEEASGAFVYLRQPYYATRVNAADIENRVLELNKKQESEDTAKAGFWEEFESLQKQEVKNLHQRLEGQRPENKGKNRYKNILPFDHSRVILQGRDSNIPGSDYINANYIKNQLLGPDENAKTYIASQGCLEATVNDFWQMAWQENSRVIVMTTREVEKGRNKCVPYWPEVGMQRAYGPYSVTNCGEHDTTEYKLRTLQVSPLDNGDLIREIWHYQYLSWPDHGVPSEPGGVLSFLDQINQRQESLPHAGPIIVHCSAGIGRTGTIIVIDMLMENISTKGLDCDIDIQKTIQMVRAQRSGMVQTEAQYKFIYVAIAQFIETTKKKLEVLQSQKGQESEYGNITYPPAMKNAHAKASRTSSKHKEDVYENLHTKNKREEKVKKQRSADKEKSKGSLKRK

[9] = molecular target: T5, Tyrosine-protein phosphatase non-receptor type 11 (Homo sapiens) (UniProt Q06124); test: Inhibition of SHP2 catalytic domain assessed as inhibition of pNPP to p-nitrophenol conversion at 50 uM after 5 mins by spectrophotometry
T5 sequence (whole entry): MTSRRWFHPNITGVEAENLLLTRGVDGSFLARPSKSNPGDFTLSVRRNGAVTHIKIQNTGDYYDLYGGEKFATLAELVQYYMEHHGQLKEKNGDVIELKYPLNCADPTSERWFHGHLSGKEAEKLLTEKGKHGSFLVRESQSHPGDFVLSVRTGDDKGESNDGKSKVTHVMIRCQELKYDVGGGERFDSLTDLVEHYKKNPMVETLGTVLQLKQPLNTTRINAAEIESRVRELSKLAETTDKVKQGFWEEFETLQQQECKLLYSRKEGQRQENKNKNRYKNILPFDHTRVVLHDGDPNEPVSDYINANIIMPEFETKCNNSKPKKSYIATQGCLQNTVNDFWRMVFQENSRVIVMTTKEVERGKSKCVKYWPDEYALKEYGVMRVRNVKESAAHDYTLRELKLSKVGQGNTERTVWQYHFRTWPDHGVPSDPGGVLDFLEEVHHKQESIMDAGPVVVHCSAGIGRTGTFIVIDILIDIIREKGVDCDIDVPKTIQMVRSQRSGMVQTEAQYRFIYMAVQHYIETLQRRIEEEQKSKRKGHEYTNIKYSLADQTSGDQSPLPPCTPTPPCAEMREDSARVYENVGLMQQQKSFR

Q: Which IC50 [1] does the source give for Cc1cc(S(=O)(=O)O)c(S(=O)(=O)O)cc1N1N=C(C(=O)O)CC1=O here?
A: > 100 µM

Q: And the IC50 [2]?
A: > 100 µM

Q: What about the inhibition [3] of the same molecule?
A: inactive

Q: And the inhibition [4]?
A: inactive

Q: What about the IC50 [5] of the same molecule?
A: 118 µM

Q: What about the IC50 [6] of the same molecule?
A: > 100 µM

Q: What about the inhibition [7] of the same molecule?
A: inactive

Q: And the IC50 [8]?
A: 14 µM

Q: What about the inhibition [9] of the same molecule?
A: 91%
